Measured values: patent US20230227547A1, “ANTIBODY-PAYLOAD CONJUGATES WITH ENHANCED DELIVERY DOMAIN AND USES THEREOF” (IPROGEN BIOTECH INC., priority 2019, published 2023)

Columns and labels:
[1] = tested on: LnCap; assay: Delivery assay, Goat anti-human IgG-AlexaFluor 488 fluorescence microscopy, LnCap; type: cell-based; parameters: key to Delivery efficiency of mAb (i.e., mAb): +++: Strong Alexa Fluor 488 (cyan/green) fluorescent intensity; ++: Medium level of Alexa Fluor 488 (cyan/green) fluorescent intensity; +: Weak, but noticeable Alexa Fluor 488 (cyan/green) fluorescent intensity; -: No signal; conditions: Target cell LnCap; for Delivery efficiency of mAb (i.e., mAb): 100 nM, 3 hours; for Delivery enhancement: mAb-LL37 vs mAb
Protocol: Delivery assay. […] The culturing media containing the unbound antibodies were removed, and the MDA-MB-468 cells were washed with PBS. The adherent cells were treated with trypsin at 37 degree C for 1-2 minutes, neutralized in FACS buffer (2% v/v FBS, 2 mM EDTA, 0.05% w/v sodium azide in PBS), and transferred to FACS tubes on ice. The delivery of antibodies to cells was quantitated by measuring the red fluorescence intensity (i.e., PE-Texas Red color channel in the FACS detector) emitted fromZ-RFP bound to antibody. […] At the end of incubation, the adherent target cells were washed twice with ice-cold PBS, fixed with 2% (w/v) formaldehyde in PBS at room temperature for 15 minutes, and washed twice with PBS at room temperature. The fixed adherent target cells were then permeabilized with 0.05% (v/v) Tween-20 in PBS at room temperature for 15 minutes. The permeabilized cells were then incubated with 5% (v/v) FBS, 0.05% (v/v) Tween-20 in PBS at 37 degree Celsius incubator for 30 minutes. The secondary antibody, Goat anti-human IgG-AlexaFluor 488, was added to 5 ug/ml in 5% (v/v) FBS, 0.05% (v/v) Tween-20 in PBS, and incubated with the treated target cells at 37 degree Celsius incubator for 30 minutes. After incubation, the labelled cells were washed twice with PBS, and stored in storage buffer [5% (v/v) FBS in PBS] at 4 degree Celsius until fluorescence microscope imaging. The delivery of mAb and mAb-LL37 were determined qualitatively by estimating the green fluorescence intensity emitted from the AlexFluor488-labelled secondary antibody bound to mAb or mAb-LL37. […] However, Ramos [NT] No. ATCC CRL-1596, lot#70016960) was grown in suspension culture (i.e., in contrast to adherent cells), and the modification to the methods involves simply harvesting cells from the shaking culture flask for incubation with antibodies (or LL37-linked antibodies), and frequently pelleting down the target cells in the V-bottom 96-well polypropylene plate for downstream processes of PBS washing, fixing, permeabilizing, blocking, and the secondary antibody labelling. The secondary anti-human IgG-AlexaFluor488 labelled target cells were washed and resuspended in PBS, and transferred to the clear polystyrene 48-well plates for fluorescence microscope imaging.

[2] = tested on: T47D cells; assay: Anti-HER2 mAb delivery efficiency using LL37-derived peptide constructs; type: cell-based, human; conditions: peptide conjugated to anti-HER2 mAb light chain, 100 nM Ab, Z-GFP (PEP#6, 35-43) or Goat anti-human IgG-AlexaFluor 488 (PEP#6, 47-94) fluorescence microscopy
Protocol: LL37 and LL37-derived peptides were produced synthetically with two additional N-terminal glycine residues (e.g. as shown in SEQ ID NO:2 compared to SEQ ID NO: 1) to enable the sortase reaction. The LL37-derived peptides (PEP#35 to #43, SEQ ID NOs: 13-21) were all dissolved at 10 mg/ml in phosphate buffer saline (PBS) at room temperature, sterile-filtered, and stored at -20° C. freezer. PEP#48 (SEQ ID: 74), PEP#49 (SEQ ID No: 75), and PEP#60 (SEQ ID NO: 105) were dissolved in 20% (v/v) acetonitrile in PBS. PEP#47 (SEQ ID NO: 96), PEP#86 (SEQ ID NO: 78), PEP#98 (SEQ ID NO: 79), PEP#99 (SEQ ID NO: 80), PEP#102 (SEQ ID NO: 82), and PEP#104 (SEQ ID NO: 84) were dissolved in DMSO. PEP#50 (SEQ ID No: 76), PEP#51 (SEQ ID No: 97), PEP#55 (SEQ ID No: 77), PEP#58 (SEQ ID No: 103), PEP#59 (SEQ ID No: 104), PEP#61 (SEQ ID No: 106), PEP#62 (SEQ ID No: 107), PEP#63 (SEQ ID No: 108), PEP#64 (SEQ ID No: 109), PEP#66 (SEQ ID No: 110), and PEP#94 (SEQ ID No: 35) were all dissolved in PBS. […] The reaction was incubated inside a 37° C. incubator for 16 hours, and then EDTA (pH 7.5) was added to 10 mM in the reaction mixture to chelate calcium and stop the reaction.
Delivery assay: The following delivery assay method was used on the anti-HER2 mAbs conjugated to the PEP#6, #35, #36, #37, #38, #39, #40, #41, #42, and #43 described in Table 7. […] The plates were then removed from the incubator, and the culturing media was removed from the adherent cells. The adherent cells were washed gently with an equal volume of ice-cold PBS. Then, the PBS wash was replaced 250 µl of fresh PBS for fluorescence microscope imaging.
At the end of incubation, the adherent target cells were washed twice with ice-cold PBS, fixed with 2% (w/v) formaldehyde in PBS at room temperature for 15 minutes, and washed twice with PBS at room temperature. The fixed adherent target cells were then permeabilized with 0.05% (v/v) Tween-20 in PBS at room temperature for 15 minutes. The permeabilized cells were then incubated with 5% (v/v) FBS, 0.05% (v/v) Tween-20 in PBS at 37 degree Celsius incubator for 30 minutes. The secondary antibody, Goat anti-human IgG-AlexaFluor 488, was added to 5 ug/ml in 5% (v/v) FBS, 0.05% (v/v) Tween-20 in PBS, and incubated with the treated target cells at 37 degree Celsius incubator for 30 minutes. After incubation, the labelled cells were washed twice with PBS, and stored in storage buffer [5% (v/v) FBS in PBS] at 4 degree Celsius until fluorescence microscope imaging. The delivery of mAb and mAb-LL37-derived peptides were determined qualitatively by estimating the green fluorescence intensity emitted from the AlexFluor488-labelled secondary antibody bound to mAb or mAb-LL37-derived peptides.

[3] = tested on: CD3-positive Jurkat cells; assay: Delivery assay, Z-RFP FACS, Jurkat cells; type: cell-based, human; conditions: 1 nM, 10 nM, 100 nM; 30 minutes
Protocol: For FIG. 30 Panel E, Foralumab-LL37 was made from Foralumab (SEQ ID NOs: 129 and 130) in a sortase-catalyzed reaction to GG-LL37 peptide (SEQ ID NO: 2), and purified on Protein A chromatography. For cell delivery assay, Foralumab/Foralumab-LL37 and equimolar number of Z-RFP were added to Jurkat cells at described final concentration (i.e, 1 nM, 10 nM, and 100 nM) and incubated for 30 minutes. The liquid suspension culture was gently spun in a microcentrifuge at 2000 rpm for 4 minutes, and the clear supernatant was removed, and the cell pellet was washed in PBS and resuspended in FACS buffer (1XPBS, 2% FBS, 1 mM EDTA, 0.02% sodium azide) for analysis by FACS (Texas Red channel).

[4] = tested on: T47D cells; assay: Cell viability assay with XTT, T47D; type: cell-based, human; conditions: XTT (Taxol ADCs: 3 hours)
Protocol: The cell assay was done by treating/incubating the T47D cells with antibody drug conjugates for 3 hours in the 37 degree C tissue culture incubator. After treatment, cell viability was determined by XTT assay as described above.
(§1) After treatment, cell viability was determined by XTT assay as described above.

[5] = tested on: OVCAR3 cells; assay: Cell viability assay with XTT, OVCAR3; type: cell-based, human; conditions: 72 hours (FIG. 10: 24 hours) treatment
Protocol: Cell viability assay with XTT. On day 1, cells (OVCAR3) were seeded at about 0.02 to 0.025 million cells per ml concentration and incubated overnight in the 37 degree Celsius incubator. […] One set was incubated for 24 hours, and another set for 72 hours. On day 3, the set with 24 hours, the treatment were removed, and replaced with fresh growth media, and continued incubation for the next 48 hours (for the total of 72 hours). On day 5, the set with both 24 hours and 72 hours treatments were analyzed. […] XTT and PMS solutions were freshly prepared immediately before the assay, and were used right away. XTT/PMS were added to the treated cells to start the XTT reaction. […] Spectral absorbance was measured at 475 nm (XTT) and 660 nm (background), and viability calculated from the spectral absorbance difference at 475 nm and 660 nm.
The cell assay was done by treating/incubating the OVCAR3 cells with antibody drug conjugates for 3 hours in the 37 degree C tissue culture incubator. After treatment, cell viability was determined by XTT assay as described above.
as §1
Cell viability assay was carried out with XTT as as described above.
(§2) Cell viability assay with XTT. […] After treatment, cell viability was determined by XTT assay as described above.

[6] = tested on: RT4V6 cells; assay: Cell viability assay with XTT, RT4V6; type: cell-based, human; conditions: 72 hours treatment
Protocol: Cell viability assay with XTT. On day 1, cells (RT4V6, Neuro2A) were seeded at about 0.02 to 0.025 million cells per ml concentration and incubated overnight in the 37° C. incubator. […] XTT and PMS solutions were freshly prepared immediately before the assay, and were used right away. XTT/PMS were added to the treated cells to start the XTT reaction. […] Spectral absorbance was measured at 475 nm (XTT) and 660 nm (background), and viability calculated from the spectral absorbance difference at 475 nm and 660 nm.
Cell assay was done by treating/incubating the RT4V6 cells with antibody drug conjugates for 72 hours in the 37 degree C tissue culture incubator. After treatment, cell viability was determined by XTT assay as described above.
The cell assay was done by treating/incubating the RT4V6 cells with antibody drug conjugates for 72 hours in the 37 degree C tissue culture incubator. After treatment, cell viability was determined by XTT assay as described above.
as §1, §2

Anti-PSMA, hj591: Anti-PSMA mAb, SEQ ID NOs: 66 and 68
Delivery efficiency of mAb (i.e., mAb) [1]: ++ | Delivery enhancement [1]: YES | Delivery enhancement ([1]; listed as hj591): greatly enhances the delivery

Citatuzumab [Anti-EpCAM, Citatuzumab]
Delivery efficiency of mAb (i.e., mAb) [1]: ++ | Delivery enhancement [1]: YES

EFKRIVQRIKDFLRNLVPRT [PEP#64]
Delivery efficiency [2]: +

EKIGKEFKRIVQRIKDFLRN [PEP#63]
Delivery efficiency [2]: +

FRKSKEKIGKFFKRIVQRIFDFLRNLVMMWLL [PEP#48]
Delivery efficiency [2]: +++ (Same as LL37)

Foralumab-LL37
targeted delivery (in words) [3]: more efficient than anti-CD3e mAb (i.e., Foralumab) at targeted delivery

GSIGKEFKRIVQRIKDFLR [PEP#66]
Delivery efficiency [2]: ++ (Solid enhancement in delivery, but at lower efficiency than LL37)

IGKEFKRIVQRI [PEP#40]
Delivery efficiency [2]: +

IGKEFKRIVQRIKDFLRNLVPRTES [PEP#36]
killing of T47D / cell viability (in words) [4]: enhanced the anti-HER2 mAb-MMAE drug conjugate to kill T47D cells | Delivery efficiency [2]: ++ (Solid enhancement in delivery, but at lower efficiency than LL37)

IVQRIKDFLRNLVPRTES [PEP#38]
killing of T47D / cell viability (in words) [4]: enhanced the anti-HER2 mAb-MMAE drug conjugate to kill T47D cells | Delivery efficiency [2]: ++ (Solid enhancement in delivery, but at lower efficiency than LL37)

KEFKRIVQRIKDFLRGGGGSRLFDKIRQVIRKFEKG [PEP#55]
Delivery efficiency [2]: +++ (Same as LL37) | killing of OVCAR3 / cell viability (in words) [5]: strongly enhance ADC killing | killing of RT4V6 / cell viability (in words) [6]: strongly enhance ADC killing
